Where two headings read alike, the source gives them in different places.
Legend:
[1] = mouse, dose 35 mg/kg, Rudolph et al.; cited from earlier work
[2] = Mouse PK data for selected compounds of the invention; assay type: in vivo; conditions: dose 1 mg/kg; for AUC / Cmax: plasma
Description: The plasma concentration is measured using standard LC-MS/MS analysis based on the following method. Calibration and control samples are prepared as follows from a 500 μg/mL solution of compound in methanol/DMSA 50/50 v/v. This stock solution is used to prepare diluted working standards of the test items with concentrations from 200 ng/ml to 500,000 ng/ml. The solutions are diluted with methanol and stored at +4° C. in glass vials when not in use. The working solutions are used to prepare calibration standards in control plasma, with a final concentration of between 10 ng/ml and 5000 ng/ml per 100 microlitres of plasma. These standards are prepared on day one of analysis and re-prepared as necessary on each analytical occasion. Internal standards are dissolved in methanol/DMSA 50/50 v/v and diluted to 1 μg/mL in acetonitrile for a working solution.
Plasma samples are extracted by the following method. Transfer 50 microlitres of each calibration, quality control and test sample to a 96-well mictrotitre plate. Add 200 microlitres of a 1 microgram per millilitre internal standard solution in acetonitrile to all samples except for a double blank. 200 microlitres of acetonitrile is added to the double blank. Samples are briefly vortex mixed, and centrifuged at 2128 g for 30 minutes. Recoverable supernatant is transferred to an appropriate well of a microtitre plate and extracts are evaporated with oxygen free nitrogen at a gas temperature of about 40° C. Extracts are reconstituted in 200 μL of mobile phase and mixed well. The plate is sealed with silicone-based pre-pierced web seal and used for LC-MS/MS analysis.
LC-MS/MS analysis can be performed using the following chromatography conditions.

[3] = system: BAC and ESCC cell lines versus the benign OE cell line (CPA); assay: 96-well drug washout/outgrowth anti-proliferative assay (resazurin, day 6); assay type: cell-based; conditions: all timepoints
Description: Tumour sensitivity towards Plk1 inhibitors was studied in a panel of oesophageal (OE) cell lines. The cell lines used were: a benign Barrett's (CPA), two Barrett's adenocarcinoma (OE19 and OE33; Sigma Aldrich), and two oesophageal squamous cell carcinoma cell lines (OE21, ECACC; and KYSE-410, ECACC).
The anti-proliferative effect of Plk1 inhibitors was studied in a 96-well format drug washout/outgrowth assay. Cells were seeded at 1.5-2.5×10^3 cells per well in 96-well plates and left to incubate overnight at 37° C., 5% CO2, before addition of a range of concentrations of each of the different Plk1 inhibitors. Cells were incubated with the compounds for various periods of time, ranging from 3 to 24 hours; media containing the compounds was then removed from the cells and replaced with drug-free media until the end of the assay. The cell viability was evaluated on day 6 using a standard resazurin-based assay according to manufacturer's instructions (AlamarBlue, AbD Serotec, Oxford, UK). The IC50 values were determined using IDBS software.

SMILES | Cl_obs [2] [mL/min/kg] | HL_Lambda_z [2] [h] | Vz_obs [2] [L/kg] | AUC [2] [ng·h/mL] | Cmax [2] [ng/mL] | Cl_obs [1] [mL/min/kg] | Cmax [1] [ng/mL] | HL_Lambda_z [1] [h] | Vz_obs [1] [L/kg] | differentiation between the cancerous and the benign cell lines [3]
CC[C@@H]1C(=O)N(C)c2cnc(Nc3ccc(C(=O)N[C@H]4CC[C@H](N5CCN(CC6CC6)CC5)CC4)cc3OC)nc2N1C(C)C [BI6727] |  |  |  |  |  | 10 | 4390 | 46 | 7.6 | 
CC[C@@H]1C(=O)N(C)c2cnc(Nc3ccc(C(=O)NC4CCN(C)CC4)cc3OC)nc2N1C1CCCC1 [BI2536] |  |  |  |  |  |  |  |  |  | little or no differentiation

More lines, main results first:

Cl_obs [2] [mL/min/kg] | HL_Lambda_z [2] [h] | Vz_obs [2] [L/kg] | AUC [2] [ng·h/mL] | Cmax [2] [ng/mL] | SMILES | Cl_obs [1] [mL/min/kg] | Cmax [1] [ng/mL] | HL_Lambda_z [1] [h] | Vz_obs [1] [L/kg] | differentiation between the cancerous and the benign cell lines [3]
40.75 | 1.97 | 6.937 | 377 | 453 | COc1cc(C(=O)N[C@H]2CC[C@H](N3CCN(C)CC3)CC2)ccc1Nc1ncc2c(n1)N(C1CCCC1)CC1(CC1)C(=O)N2C [Compound A7, 4-(9′-cyclopentyl-5′-methyl-6′-oxo-5′,6′,8′,9′-tetrahydrospiro[cyclopropane-1,7′-pyrimido[4,5-b][1,4]diazepine]-2′-ylamino)-N-((trans)-4-(4-methylpiperazin-1-yl)cyclohexyl)-3-methoxybenzamide] |  |  |  |  | 
21.22 | 2.89 | 5.304 | 631 | 478 | COc1cc(C(=O)N[C@H]2CC[C@H](N3CCN(CC4CC4)CC3)CC2)ccc1Nc1ncc2c(n1)N(C1CCCC1)CC1(CC1)C(=O)N2C [Compound A1, 4-(9′-cyclopentyl-5′-methyl-6′-oxo-5′,6′,8′,9′-tetrahydrospiro[cyclopropane-1,7′-pyrimido[4,5-b][1,4]diazepine]-2′-ylamino)-N-((trans)-4-(4-(cyclopropylmethyl)piperazin-1-yl)cyclohexyl)-3-methoxybenzamide] |  |  |  |  | 
99.8 | 0.78 | 6.713 | 164 | 405 | COc1cc(C(=O)NC2CCN(C3CCOCC3)CC2)ccc1Nc1ncc2c(n1)N(C1CCCC1)CCC(=O)N2C [Compound A13, 4-(9-cyclopentyl-5-methyl-6-oxo-6,7,8,9-tetrahydro-5H-pyrimido[4,5-b][1,4]diazepin-2-ylamino)-3-methoxy-N-[1-(tetrahydro-pyran-4-yl)-piperidin-4-yl]-benzamide] |  |  |  |  | 
